Laboratory results from patent publication US20220133651A1, “TREATMENT OF PITT-HOPKINS SYNDROME” (HEALX LTD, priority 2019, published 2022).
“Also recorded” adds a separate entry of the source. Where a name gives a salt, the structure may show the parent alone.

Key:
[1] = cited from earlier work
[2] = test system: Tcf4+/− mice; test: Dose response experiments in behavioural tests (Study 2); type: in vivo, mouse
Method: Dose response experiments were conducted following the protocol described above. Amitriptyline rescued all the behavioral tests at 5 and 10 mg/kg.

[3] = test system: Tcf4+/− mice; test: Open field (measure of hyperactivity); type: in vivo, mouse; settings: chronic treatment of Tcf4+/− mice
Excerpt: (§1) The Tcf4+1− mouse model has been developed to mimic PTHS and therefore assess potential treatments. The mice have deficits in hippocampus-dependent learning and memory, spatial working memory, sociability, stereotypy, hyperactivity and daily living paradigms. […] Mice were purchased from The Jackson Laboratory and maintained on a C57BL/6 background. They were raised on a 12:12 light:dark cycle with ad libitum access to food and water. Controls consisted of TCF4+1+. All mice used were heterozygous for the Tcf4 mutation because homozygous mutations result in embryonic/post-partum lethality. There were four treatment groups per compound in the study with 10 male mice used per treatment group (all at 14 weeks of age): Group 1: wild-type littermate mice treated with vehicle (WT+veh); Group 2: Tcf4+/−KO mice treated with vehicle (Tcf4+1−+veh), Group 3: WT+drug; and Group 4: Tcf4+1−+drug. The open-field apparatus was used to test hyperactivity. […] The number of squares entered by the whole body (locomotor activity) was counted. The movement of the mouse around the field was recorded with a video tracking device for 3 min (version NT4.0, Viewpoint). Data were analysed by two-way analysis of variance (ANOVA) followed by post-test comparisons where appropriate using Tukey's Multiple Comparison Test, Data are represented as the mean and standard error of the mean (SEM).

[4] = test system: Tcf4+/− mice; test: Self-grooming (assessment of stereotypy); type: in vivo, mouse; settings: chronic treatment of Tcf4+/− mice
Excerpt: as §1, with “Tcf4+1−+drug.” for “Tcf4+1−+drug. The open-field apparatus was used to test hyperactivity.”, “Usually in a sitting position,” for “The number of squares entered by the whole body (locomotor activity) was counted. The movement of”, “will lick its fur, groom with” for “around”, “forepaws, or scratch” for “field was recorded”, “any limb. Often the mouse will mix all of these grooming behaviors. […]” for “a video tracking device for 3 min (version NT4.0, Viewpoint).”

[5] = test system: Tcf4+/− mice; test: Sociability/Partition test (assessment of social anxiety); type: in vivo, mouse; settings: chronic treatment of Tcf4+/− mice
Excerpt: The Tcf4+1- mouse model has been developed to mimic PTHS and therefore assess potential treatments. The mice have deficits in hippocampus-dependent learning and memory, spatial working memory, sociability, stereotypy, hyperactivity and daily living paradigms. […] Mice were purchased from The Jackson Laboratory and maintained on a C57BL/6 background. They were raised on a 12:12 light:dark cycle with ad libitum access to food and water. Controls consisted of TCF4+1+. All mice used were heterozygous for the Tcf4 mutation because homozygous mutations result in embryonic/post-partum lethality. There were four treatment groups per compound in the study with 10 male mice used per treatment group (all at 14 weeks of age): Group 1: wild-type littermate mice treated with vehicle (WT+veh); Group 2: Tcf4+/-KO mice treated with vehicle (Tcf4+1-+veh), Group 3: WT+drug; and Group 4: Tcf4+1-+drug. In the three-chambered sociability task, a subject mouse was evaluated for its exploration of a novel social stimulus (novel mouse). […] The time spent exploring the novel mice was scored as exploration ratio. Data were analysed by two-way analysis of variance (ANOVA) followed by post-test comparisons where appropriate using Tukey's Multiple Comparison Test, Data are represented as the mean and standard error of the mean (SEM).

[6] = test system: Tcf4+/− mice; test: Fear conditioning (test of learning and memory); type: in vivo, mouse; settings: chronic treatment of Tcf4+/− mice
Excerpt: The Tcf4+1− mouse model has been developed to mimic PTHS and therefore assess potential treatments. The mice have deficits in hippocampus-dependent learning and memory, spatial working memory, sociability, stereotypy, hyperactivity and daily living paradigms. […] Mice were purchased from The Jackson Laboratory and maintained on a C57BL/6 background. They were raised on a 12:12 light:dark cycle with ad libitum access to food and water. Controls consisted of TCF4+1+. All mice used were heterozygous for the Tcf4 mutation because homozygous mutations result in embryonic/post-partum lethality. There were four treatment groups per compound in the study with 10 male mice used per treatment group (all at 14 weeks of age): Group 1: wild-type littermate mice treated with vehicle (WT+veh); Group 2: Tcf4+/−KO mice treated with vehicle (Tcf4+1−+veh), Group 3: WT+drug; and Group 4: Tcf4+1−+drug. Tcf4+/− mice show reduced freezing in the context of clued fear conditioning test indicating hippocampus-dependent memory and learning deficiency. […] Data were analysed by two-way analysis of variance (ANOVA) followed by post-test comparisons where appropriate using Tukey's Multiple Comparison Test, Data are represented as the mean and standard error of the mean (SEM).

[7] = test system: Tcf4+/− mice; test: Nesting (test of daily living); type: in vivo, mouse; settings: chronic treatment of Tcf4+/− mice
Excerpt: The Tcf4+1− mouse model has been developed to mimic PTHS and therefore assess potential treatments. The mice have deficits in hippocampus-dependent learning and memory, spatial working memory, sociability, stereotypy, hyperactivity and daily living paradigms. […] Mice were purchased from The Jackson Laboratory and maintained on a C57BL/6 background. They were raised on a 12:12 light:dark cycle with ad libitum access to food and water. Controls consisted of TCF4+1+. All mice used were heterozygous for the Tcf4 mutation because homozygous mutations result in embryonic/post-partum lethality. There were four treatment groups per compound in the study with 10 male mice used per treatment group (all at 14 weeks of age): Group 1: wild-type littermate mice treated with vehicle (WT+veh); Group 2: Tcf4+/−KO mice treated with vehicle (Tcf4+1−+veh), Group 3: WT+drug; and Group 4: Tcf4+1−+drug. The test was performed in individual cages. Normal bedding covered the floor to a depth of 0.5 cm. […] Mice were placed individually into the nesting cages 1 hr. before the dark phase, and the results were assessed the next morning. Nest building was scored on a 5 point scale. […] Data were analysed by two-way analysis of variance (ANOVA) followed by post-test comparisons where appropriate using Tukey's Multiple Comparison Test, Data are represented as the mean and standard error of the mean (SEM).

[8] = test system: Tcf4+/− mice; test: Test of Force (hind limb grip strength); type: in vivo, mouse; settings: chronic treatment of Tcf4+/− mice
Excerpt: The Tcf4+1− mouse model has been developed to mimic PTHS and therefore assess potential treatments. The mice have deficits in hippocampus-dependent learning and memory, spatial working memory, sociability, stereotypy, hyperactivity and daily living paradigms. […] Mice were purchased from The Jackson Laboratory and maintained on a C57BL/6 background. They were raised on a 12:12 light:dark cycle with ad libitum access to food and water. Controls consisted of TCF4+1+. All mice used were heterozygous for the Tcf4 mutation because homozygous mutations result in embryonic/post-partum lethality. There were four treatment groups per compound in the study with 10 male mice used per treatment group (all at 14 weeks of age): Group 1: wild-type littermate mice treated with vehicle (WT+veh); Group 2: Tcf4+/−KO mice treated with vehicle (Tcf4+1−+veh), Group 3: WT+drug; and Group 4: Tcf4+1−+drug. Tcf4+/− mice show a significant deficit in hindlimb strength (not forelimb) when compared with WT mice. Neuromuscular function of the hindlimbs was tested with a grip strength meter (San Diego Instruments). […] The force applied to the grid at the moment the grasp was released was recorded. Data were analysed by two-way analysis of variance (ANOVA) followed by post-test comparisons where appropriate using Tukey's Multiple Comparison Test, Data are represented as the mean and standard error of the mean (SEM).

SMILES	solubility in water [1]	all the behavioral tests (dose response) ([2]; 5 mg/kg)	all the behavioral tests (dose response) ([2]; 10 mg/kg)	open field (hyperactivity) [3]	self-grooming (stereotypy) [4]	sociability (social anxiety) [5]	fear conditioning (learning and memory) [6]	nesting (tests of daily living) [7]	test of force (strength) [8]
CN(C)CCC=C1c2ccccc2CCc2ccccc21 [amitriptyline HCL, 3-(10,11-dihydro-5H-dibenzo [ad]cycloheptene-5-ylidene)-N,N-dimethyl-1-propanamine hydrochloride]	freely soluble								
CN(C)CCC=C1c2ccccc2CCc2ccccc21 [amitriptyline]		rescued	rescued	significantly improved; also recorded: rescuing	significantly improved; also recorded: rescuing	significantly improved; also recorded: rescuing	significantly improved; also recorded: rescuing	significantly improved; also recorded: rescuing	significantly improved; also recorded: rescuing
